Measured values from the NIST ThermoML archive (doi:10.1016/j.jct.2007.07.002).
Where “and” joins values, the source holds several entries; their conditions need not be identical. Identical values can stand only once.

Settings: Gas, double Helmholtz acoustic resonator

FS(F)(F)(F)(F)F [sulfur hexafluoride]
273.16 K
Settings | kinematic viscosity [m2/s] | speed of sound [m/s]
290.38 kPa | 7.19e-07 | 126.14
386.66 kPa | 5.33e-07 | 124.46
492.4 kPa | 4.1e-07 | 122.54
602.05 kPa | 3.28e-07 | 120.45
712.29 kPa | 2.72e-07 | 118.25
808.73 kPa | 2.35e-07 | 116.21
903.28 kPa | 2.24e-07 | 114.14
1000.5 kPa | 1.81e-07 | 111.81

FC1(F)C(F)(F)C(F)(F)C1(F)F [octafluorocyclobutane]
Settings | kinematic viscosity [m2/s] | speed of sound
300 K, 160.13 kPa | 8.54e-07 | 109.85 m/s
300 K, 180.38 kPa | 7.62e-07 | 109.17 m/s
300 K, 209.45 kPa | 6.47e-07 | 108.13 m/s
300 K, 239.58 kPa | 5.55e-07 | 107.04 m/s
310 K, 167.11 kPa | 1.04e-06 | 111.91 m/s
310 K, 212.21 kPa | 6.65e-07 | 110.44 m/s
310 K, 259.63 kPa | 5.45e-07 | 108.88 m/s
310 K, 319.54 kPa | 4.4e-07 | 106.84 m/s
310 K, 359.99 kPa | 4.21e-07 | 105.47 m/s
315 K, 195.64 kPa | 7.57e-07 | 112.23 m/s
315 K, 234.75 kPa | 6.39e-07 | 111.1 m/s
315 K, 272.93 kPa | 5.38e-07 | 109.92 m/s
315 K, 312.27 kPa | 4.61e-07 | 108.66 m/s
315 K, 357.7 kPa | 3.99e-07 | 107.16 m/s
315 K, 410.27 kPa | 3.42e-07 | 105.34 m/s
320 K, 122.6 kPa | 1.12e-06 | 115.18 m/s
320 K, 172.92 kPa | 9.2e-07 | 113.83 m/s
320 K, 222.82 kPa | 6.6e-07 | 112.47 m/s
320 K, 274.43 kPa | 5.38e-07 | 111.03 m/s
320 K, 326.85 kPa | 4.48e-07 | 109.44 m/s
320 K, 380.03 kPa | 3.92e-07 | 107.76 m/s
320 K, 482.22 kPa | 2.95e-07 | 104.31 m/s
330 K, 117.49 kPa | 1.43e-06 | 117.54 m/s
330 K, 189.29 kPa | 8.81e-07 | 115.79 m/s
330 K, 215.35 kPa | 7.77e-07 | 115.12 m/s
330 K, 288.39 kPa | 5.63e-07 | 113.25 m/s
330 K, 290.78 kPa | 5.67e-07 | 113.11 m/s
330 K, 368.85 kPa | 4.3e-07 | 111.06 m/s
330 K, 376.53 kPa | 4.2e-07 | 110.78 m/s
330 K, 450.7 kPa | 3.45e-07 | 108.71 m/s
330 K, 465.61 kPa | 3.3e-07 | 108.18 m/s
330 K, 534.61 kPa | 2.83e-07 | 106.13 m/s
330 K, 536.09 kPa | 2.8e-07 | 106 m/s
330 K, 621.46 kPa | 2.37e-07 | 103.15 m/s and 103.25 m/s
345.04 K, 244.86 kPa | 7.3e-07 | 117.72 m/s
345.04 K, 347.35 kPa | 5.14e-07 | 115.42 m/s
345.04 K, 445.79 kPa | 3.86e-07 | 113.12 m/s
345.04 K, 553.32 kPa | 3.05e-07 | 110.35 m/s
345.04 K, 652.37 kPa | 2.52e-07 | 107.68 m/s
345.04 K, 772.66 kPa | 2.06e-07 | 104.17 m/s
345.04 K, 881.89 kPa | 1.76e-07 | 100.69 m/s
360 K, 216.1 kPa | 9.15e-07 | 121.47 m/s
360 K, 407.3 kPa | 4.74e-07 | 117.75 m/s
360 K, 609.73 kPa | 3.2e-07 | 113.46 m/s
360 K, 802.73 kPa | 2.19e-07 | 108.94 m/s
360 K, 1012.2 kPa | 1.68e-07 | 103.47 m/s
360 K, 1203.3 kPa | 1.35e-07 | 97.73 m/s
375 K, 183.85 kPa | 1.12e-06 | 124.97 m/s
375 K, 378.87 kPa | 5.53e-07 | 121.72 m/s
375 K, 568.99 kPa | 3.54e-07 | 118.34 m/s
375 K, 758.63 kPa | 2.59e-07 | 114.75 m/s
375 K, 960.1 kPa | 2.05e-07 | 110.61 m/s
375 K, 1188.2 kPa | 1.56e-07 | 105.48 m/s
375 K, 1402 kPa | 1.28e-07 | 100.08 m/s
375 K, 1620.4 kPa | 1.06e-07 | 93.75 m/s
